{"source": "patent US11918587B2", "about": "“Treatment of cancer with a RAF inhibitor” (Kinnate Biopharma Inc., priority 2021, dated 2024)", "key": {"pERK in 8505C cells": {"test_system": "pERK in 8505C cells", "assay": "cells", "conditions": "Homo sapiens"}, "pERK in NCI-H2087 cells": {"test_system": "pERK in NCI-H2087 cells", "assay": "cells", "conditions": "Homo sapiens"}, "pERK in DBTRG-05MG cells": {"test_system": "pERK in DBTRG-05MG cells", "assay": "cells", "conditions": "Homo sapiens"}, "pERK in OV-90 cells": {"test_system": "pERK in OV-90 cells", "assay": "cells", "conditions": "Homo sapiens, OV-90, 1 h, read-out: pERK EC50"}, "pERK in IPC-298 cells": {"test_system": "pERK in IPC-298 cells", "assay": "cells", "conditions": "Homo sapiens"}, "pERK in Calu-6 cells": {"test_system": "pERK in Calu-6 cells", "assay": "cells", "conditions": "Homo sapiens"}, "pERK in Hs 294T cells": {"test_system": "pERK in Hs 294T cells", "assay": "cells", "conditions": "Homo sapiens"}, "pERK in SK-MEL-30 cells": {"test_system": "pERK in SK-MEL-30 cells", "assay": "cells", "conditions": "Homo sapiens"}, "[1]": {"test_system": "SK-MEL-2 human melanoma cells", "assay": "7-day CellTiter-Glo growth assay with binimetinib combination and synergy analysis", "type": "cell-based", "conditions": "SK-MEL-2, 168 h", "description": "SK-MEL-2 human melanoma cells were obtained from American Type Culture Collection and maintained in DMEM+10% FBS+1% penicillin/streptomycin. All cells were maintained in a humidified incubator at 37° C. with 5% carbon dioxide (CO2). […] Plates were removed from the incubator and equilibrated at room temperature for 15 minutes. Then, 100 μL of CellTiter-Glo (CTG) reagent was added into each well to be detected (at 1:1 to culture medium). The plates were kept at room temperature for 30 minutes followed by reading on a plate reader. […] Highest single agent (HSA), Bliss, and Loewe synergy models were assessed and utilized to find the most synergistic area score, where scores >10 indicate that the interaction between the two drugs is likely to be synergistic."}, "[2]": {"assay": "plasma exposure in SK-MEL-2 xenograft study", "conditions": "mouse, oral"}, "[3]": {"assay": "plasma exposure in WM3629 BID combination study (Example 6)", "conditions": "athymic BALB/c nude, mouse, oral, 3 mg/kg"}, "[4]": {"conditions": "mouse, in vivo, po", "description": "For routine monitoring, all study animals were monitored for not only tumor growth but also any abnormalities of behavior and appearance such as mobility, food and water consumption, body weight, eye appearance, and any other abnormal observations. Any mortality and/or abnormal clinical signs were recorded. Body weights of all animals were measured and recorded every other day throughout the study. The measurement of tumor size was conducted with calipers and recorded three times during the first week and twice weekly during the second and third weeks. The TV (mm^3) was estimated using the formula: TV=a×b^2/2, where “a” and “b” are long and short diameters of a tumor, respectively."}, "pERK in CAL-12T cells": {"test_system": "pERK in CAL-12T cells", "assay": "cells", "conditions": "Homo sapiens, 1 h, read-out: pERK EC50"}, "[5]": {"assay": "plasma exposure in mice bearing BxPC-3 and WM3629 xenografts", "type": "in vivo", "conditions": "athymic nude, mouse, po, sulfate salt form, 24-hour period following the last dose, read-out: systemic plasma exposures (AUClast)"}, "[6]": {"conditions": "mouse, in vivo"}, "pERK in AM-38 cells": {"test_system": "pERK in AM-38 cells", "assay": "cells", "conditions": "Homo sapiens"}, "pERK in SK-MEL-28 cells": {"test_system": "pERK in SK-MEL-28 cells", "assay": "cells", "conditions": "Homo sapiens"}, "[7]": {"test_system": "WM3629 (NRAS mutant, Class III BRAF mutant) melanoma xenograft", "assay": "WM3629 melanoma xenograft, compound 1 with binimetinib BID (Example 6)", "type": "in vivo, mouse"}, "pERK in COLO 800 cells": {"test_system": "pERK in COLO 800 cells", "assay": "cells", "conditions": "Homo sapiens"}, "[8]": {"test_system": "NCI-H2405 (Class II BRAF mutant) NSCLC xenograft"}, "pERK in A-375 cells": {"test_system": "pERK in A-375 cells", "assay": "cells", "conditions": "Homo sapiens, A-375, 1 h, read-out: pERK EC50"}, "pERK in CHL-1 cells": {"test_system": "pERK in CHL-1 cells", "assay": "cells", "conditions": "Homo sapiens, CHL-1, 1 h, read-out: pERK EC50"}, "pERK in NCI-H2405 cells": {"test_system": "pERK in NCI-H2405 cells", "assay": "cells", "conditions": "Homo sapiens, NCI-H2405, 1 h, read-out: pERK EC50"}, "pERK in NCI-H1666 cells": {"test_system": "pERK in NCI-H1666 cells", "assay": "cells", "conditions": "Homo sapiens"}, "pERK in IHH-4 cells": {"test_system": "pERK in IHH-4 cells", "assay": "cells"}, "[9]": {"assay": "plasma exposure in mice bearing A-375 tumors", "type": "in vivo", "conditions": "athymic nude, mouse, 15-60 mg/kg PO QD, free base, 24-hour period following the last dose, read-out: systemic plasma exposures (AUClast)"}, "pERK in BxPC-3 cells": {"test_system": "pERK in BxPC-3 cells", "assay": "cells", "conditions": "Homo sapiens, BXPC-3, 1 h, read-out: pERK EC50"}, "[10]": {"test_system": "A-375, BxPC-3, WM3629 xenografts", "conditions": "doses up to 60 mg/kg per day"}, "[11]": {"test_system": "SK-MEL-2 (NRAS Q61R mutant) melanoma xenograft", "assay": "SK-MEL-2 melanoma xenograft, Compound 1 with binimetinib", "type": "in vivo, mouse"}, "pERK in SK-MEL-2 cells": {"test_system": "pERK in SK-MEL-2 cells", "assay": "cells", "conditions": "Homo sapiens"}, "[12]": {"test_system": "A-375 (Class I BRAF V600E) melanoma xenograft", "conditions": "60 mg/kg QD; 8 of 9 animals"}, "in vivo": {"assay": "in vivo", "conditions": "athymic nude, mouse, plasma, oral"}, "[13]": {"assay": "tolerability / body weight in A-375 xenograft study", "description": "Mean tumor volumes and body weights are plotted, respectively; error bars denote standard error of mean. Percent change in tumor volume was calculated using the following formula: (TVf−TV0)/TV0×100%; where TVf=final tumor volume (at end of treatment) and TV0=initial tumor volume (at beginning of treatment)."}, "pERK in WM3629 cells": {"test_system": "pERK in WM3629 cells", "assay": "cells", "conditions": "Homo sapiens, WM3629, 1 h, read-out: pERK EC50"}, "pERK in HCC1195 cells": {"test_system": "pERK in HCC1195 cells", "assay": "cells"}, "pERK in MIA PaCa-2 cells": {"test_system": "pERK in MIA PaCa-2 cells", "assay": "cells", "conditions": "Homo sapiens, MIA PaCa-2, 1 h, read-out: pERK EC50"}, "pERK in HMV-II cells": {"test_system": "pERK in HMV-II cells", "assay": "cells"}, "[14]": {"test_system": "WM3629 (Class III BRAF mutant) melanoma xenograft", "assay": "WM3629 melanoma xenograft, Compound 1 with binimetinib QD (Example 3C)", "type": "in vivo, mouse", "conditions": "10 mg/kg QD single agent, 14 days", "excerpt": "Mice were assigned to respective groups based on their starting tumor volume and body weight such that the average values were the same for each treatment group."}, "[15]": {"conditions": "3 mg/kg BID PO 14 days monotherapy"}}, "note": "Like-named read-outs stand apart in the source and are kept apart here.", "data": [{"smiles": "Cc1ccc(NC(=O)N2CC[C@@H](CC(F)(F)F)C2)cc1-c1cc(N[C@H](C)CO)nc(N2CCOCC2)c1", "note": "[Compound 1, (S)-N-(3-(2-(((R)-1-hydroxypropan-2-yl)amino)-6-morpholinopyridin-4-yl)-4-methylphenyl)-3-(2,2,2-trifluoroethyl)pyrrolidine-1-carboxamide]", "values": [{"measurement": "EC50", "setting": "pERK in 8505C cells", "value": 77.1, "unit": "nM"}, {"measurement": "EC50", "setting": "pERK in NCI-H2087 cells", "value": 95.4, "unit": "nM"}, {"measurement": "EC50", "setting": "pERK in DBTRG-05MG cells", "value": 60.5, "unit": "nM"}, {"measurement": "EC50", "setting": "pERK in OV-90 cells", "value": 26, "unit": "nM"}, {"measurement": "EC50", "setting": "pERK in IPC-298 cells", "value": 267, "unit": "nM"}, {"measurement": "EC50", "setting": "pERK in Calu-6 cells", "value": 200, "unit": "nM"}, {"measurement": "EC50", "setting": "pERK in Hs 294T cells", "value": 76.9, "unit": "nM"}, {"measurement": "EC50", "setting": "pERK in SK-MEL-30 cells", "value": 95.9, "unit": "nM"}, {"measurement": "EC50", "setting": "[1]; read-out: Compound 1 7-Day CTG EC50, SK-MEL-2, binimetinib 0 nM (single agent, DMSO control)", "value": 164, "unit": "nM"}, {"measurement": "EC50", "setting": "[1]; read-out: Compound 1 7-Day CTG EC50, SK-MEL-2, binimetinib 2 nM", "value": 108, "unit": "nM"}, {"measurement": "EC50", "setting": "[1]; read-out: Compound 1 7-Day CTG EC50, SK-MEL-2, binimetinib 7.8 nM", "value": 106, "unit": "nM"}, {"measurement": "EC50", "setting": "[1]; read-out: Compound 1 7-Day CTG EC50, SK-MEL-2, binimetinib 31.3 nM", "value": 65, "unit": "nM"}, {"measurement": "EC50", "setting": "[1]; read-out: Compound 1 7-Day CTG EC50, SK-MEL-2, binimetinib 125 nM", "value": 39, "unit": "nM"}, {"measurement": "EC50", "setting": "[1]; read-out: Compound 1 7-Day CTG EC50, SK-MEL-2, binimetinib 500 nM", "value": 12, "unit": "nM"}, {"measurement": "AUC(0-t)", "setting": "[2]; 30 mg/kg", "value": "29900 to 96100", "unit": "ng·h/mL"}, {"measurement": "AUC(0-t)", "setting": "[3]", "value": "2530 to 6750", "unit": "ng·h/mL"}, {"measurement": "tolerability", "setting": "[4]", "value": "well-tolerated"}, {"measurement": "EC50", "setting": "pERK in CAL-12T cells", "value": 18.4, "unit": "nM"}, {"measurement": "AUC(0-t)", "setting": "[5]; dosed orally BID (1.5-10 mg/kg)", "value": "4030 to 42100", "unit": "ng·h/mL"}, {"measurement": "AUC(0-t)", "setting": "[5]; dosed orally QD (3-20 mg/kg)", "value": "5200 to 53700", "unit": "ng·h/mL"}, {"measurement": "tolerability (on-treatment body weight changes)", "setting": "[6]", "value": "well tolerated"}, {"measurement": "EC50", "setting": "pERK in AM-38 cells", "value": 41.4, "unit": "nM"}, {"measurement": "EC50", "setting": "pERK in SK-MEL-28 cells", "value": 107, "unit": "nM"}, {"measurement": "ΔT/ΔC", "setting": "[7]; 1.5 mg/kg BID PO 14 days", "value": 34, "unit": "%"}, {"measurement": "ΔT/ΔC", "setting": "[7]; [15]", "value": 21, "unit": "%"}, {"measurement": "EC50", "setting": "pERK in COLO 800 cells", "value": 99.5, "unit": "nM"}, {"measurement": "ΔT/ΔC", "setting": "[8]; 10 mg/kg BID PO 21 days", "value": 15, "unit": "%"}, {"measurement": "ΔT/ΔC", "setting": "[8]; 15 mg/kg BID PO 21 days", "value": "−7", "unit": "%"}, {"measurement": "EC50", "setting": "pERK in A-375 cells", "value": 67.7, "unit": "nM"}, {"measurement": "EC50", "setting": "pERK in CHL-1 cells", "value": 580, "unit": "nM"}, {"measurement": "EC50", "setting": "pERK in NCI-H2405 cells", "value": 10.1, "unit": "nM"}, {"measurement": "EC50", "setting": "pERK in NCI-H1666 cells", "value": 32.9, "unit": "nM"}, {"measurement": "EC50", "setting": "pERK in IHH-4 cells", "value": 53.1, "unit": "nM"}, {"measurement": "AUC(0-t)", "setting": "[9]", "value": "11900 to 156000", "unit": "ng·h/mL"}, {"measurement": "EC50", "setting": "pERK in BxPC-3 cells", "value": 50.7, "unit": "nM"}, {"measurement": "tolerability", "setting": "[10]", "value": "well-tolerated"}, {"measurement": "average TGI", "setting": "[11]; 10 mg/kg BID 28 days", "value": 13, "unit": "%"}, {"measurement": "average TGI", "setting": "[11]; 30 mg/kg BID 28 days", "value": 135, "unit": "%"}, {"measurement": "EC50", "setting": "pERK in SK-MEL-2 cells", "value": 139, "unit": "nM"}, {"measurement": "animals exhibiting tumor regressions", "setting": "[12]", "value": 89, "unit": "%"}, {"measurement": "AUC(0-t)", "setting": "in vivo; 30 mg/kg", "value": "31100 to 123000", "unit": "ng·h/mL"}, {"measurement": "average weight loss", "setting": "[13]; 60 mg/kg QD", "value": 5.6, "unit": "%"}, {"measurement": "weight loss of one animal during the course of treatment", "setting": "[13]; 60 mg/kg cohort, recovered by end of study", "value": "> 10", "unit": "%"}, {"measurement": "EC50", "setting": "pERK in WM3629 cells", "value": 8.8, "unit": "nM"}, {"measurement": "EC50", "setting": "pERK in HCC1195 cells", "value": 83.3, "unit": "nM"}, {"measurement": "EC50", "setting": "pERK in MIA PaCa-2 cells", "value": 685, "unit": "nM"}, {"measurement": "EC50", "setting": "pERK in HMV-II cells", "value": 44.6, "unit": "nM"}]}, {"smiles": "Cn1cnc2c(F)c(Nc3ccc(Br)cc3F)c(C(=O)NOCCO)cc21", "note": "[binimetinib, reference compound]", "values": [{"measurement": "inhibition of tumor growth", "setting": "[14]", "value": "did not lead to significant inhibition of tumor growth"}, {"measurement": "AUC(0-t)", "setting": "[2]; 3 mg/kg", "value": "7500 to 10100", "unit": "ng·h/mL"}, {"measurement": "AUC(0-t)", "setting": "[3]", "value": "5400 to 5730", "unit": "ng·h/mL"}, {"measurement": "TGI", "setting": "[7]; [15]", "value": 37, "unit": "%"}, {"measurement": "ΔT/ΔC", "setting": "[7]; [15]", "value": 63, "unit": "%"}, {"measurement": "Final Tumor Volume", "setting": "[7]; 3 mg/kg BID PO 14 days monotherapy, mean ± SEM", "value": "910 ± 69", "unit": "mm^3"}, {"measurement": "tumor growth inhibition", "setting": "[11]; 3 mg/kg BID single agent, 28 days", "value": 23, "unit": "%"}, {"measurement": "AUC(0-t)", "setting": "in vivo; 10 mg/kg", "value": "11000 to 26700", "unit": "ng·h/mL"}]}]}
